{
  "source": "patent US4093714A",
  "about": "“9β-D-Arabinofuranosylpurine nucleotides and method of use” (ICN Pharmaceuticals, Inc., priority 1974, dated 1978)",
  "key": {"Vaccinia Virus": {"system": "Vaccinia Virus", "format": "cell-based", "settings": "cell culture, three days, VR >0.5 definite, <0.5 slight antiviral activity"}, "[1]": {"system": "Type 2 Herpes Simplex Virus", "format": "cell-based", "settings": "cell culture, three days, VR >0.5 definite, <0.5 slight antiviral activity"}, "[2]": {"system": "Type 1 Herpes Simplex Virus", "format": "cell-based", "settings": "cell culture, three days, VR >0.5 definite, <0.5 slight antiviral activity"}, "[3]": {"system": "Herpes simplex, strain 123", "assay": "Anti-herpes encephalitis activity in mice, intraperitoneal treatment", "settings": "for Percent Survivor Number Increase: twice daily for 8 days from 4 hr post virus, 21 days; for Survivor Increase P: probability value (chi square analysis)"}, "equine abortion virus": {"system": "equine abortion virus", "settings": "for Infected, Treated Surv/Total: 21 days observation; for Toxicity Control Surv/Total: twice daily for four days; for Survival Increase p: Fisher's exact test; for Infected, Treated Mean Survival Time: animals dying on or before day 21; for Mean Surv. Increase p: t test"}, "[4]": {"settings": "clinical testing as antiviral agent; cited from earlier work"}, "[5]": {"settings": "cited from earlier work"}, "[6]": {"system": "spectrum of virus infections", "settings": "cited from earlier work"}, "[7]": {"settings": "eventually to uric acid; cited from earlier work"}},
  "note": "Like-named read-outs stand apart in the source and are kept apart here.",
  "data": [
    {"molecule": "O=c1c2ncn([C@@H]3O[C@H](COP(=O)(O)O)[C@@H](O)[C@@H]3O)c2ncn1O", "note": "[9-β-D-Arabinofuranosyl-N^1-hydroxyhypoxanthine-5'-phosphate]", "values": [
      {"measurement": "virus rating (VR)", "setting": "Vaccinia Virus", "result": "0.1-0.4"},
      {"measurement": "virus rating (VR)", "setting": "[1]", "result": "0.0-0.6"},
      {"measurement": "virus rating (VR)", "setting": "[2]", "result": "0.2-0.7"}
    ]},
    {"molecule": "Nc1ncnc2c1ncn2[C@@H]1O[C@H](CO)[C@@H](O)[C@@H]1O", "note": "[9-β-D-Arabinofuranosyladenine, 9-β-D-arabinofuranosyladenine]", "values": [
      {"measurement": "Percent Survivor Number Increase", "setting": "[3]; 62.5 mg/kg/day i.p.", "result": 0, "unit": "%"},
      {"measurement": "Survivor Increase P", "setting": "[3]; 62.5 mg/kg/day i.p.", "result": "> 0.03"},
      {"measurement": "Percent Survivor Number Increase", "setting": "[3]; 125 mg/kg/day i.p.", "result": 30, "unit": "%"},
      {"measurement": "Survivor Increase P", "setting": "[3]; 125 mg/kg/day i.p.", "result": "< 0.05"},
      {"measurement": "Percent Survivor Number Increase", "setting": "[3]; 250 mg/kg/day i.p.", "result": 40, "unit": "%"},
      {"measurement": "Survivors/Total (Toxicity Controls)", "setting": "[3]; 250 mg/kg/day i.p., twice daily for 8 days, 21 days observation", "result": "5/5"},
      {"measurement": "Survivor Increase P", "setting": "[3]; 250 mg/kg/day i.p.", "result": "< 0.05"},
      {"measurement": "effectiveness of ara-A compared with ara-IMP", "setting": "[3]; i.p., Table II", "result": "less effective"},
      {"measurement": "Infected, Treated Surv/Total", "setting": "equine abortion virus; Expt. 1, 125 mg/kg/day i.p.", "result": "8/9"},
      {"measurement": "Toxicity Control Surv/Total", "setting": "equine abortion virus; Expt. 1, 125 mg/kg/day i.p.", "result": "2/2"},
      {"measurement": "Survival Increase p", "setting": "equine abortion virus; Expt. 1, 125 mg/kg/day i.p.", "result": "< 0.001"},
      {"measurement": "Infected, Treated Mean Survival Time", "setting": "equine abortion virus; Expt. 1, 125 mg/kg/day i.p.", "result": 13, "unit": "days"},
      {"measurement": "Infected, Treated Surv/Total", "setting": "equine abortion virus; Expt. 1, 250 mg/kg/day i.p.", "result": 0.8},
      {"measurement": "Toxicity Control Surv/Total", "setting": "equine abortion virus; Expt. 1, 250 mg/kg/day i.p.", "result": "2/3"},
      {"measurement": "Infected, Treated Mean Survival Time", "setting": "equine abortion virus; Expt. 1, 250 mg/kg/day i.p.", "result": 9.2, "unit": "days"},
      {"measurement": "Mean Surv. Increase p", "setting": "equine abortion virus; Expt. 1, 250 mg/kg/day i.p.", "result": "< 0.001"},
      {"measurement": "Infected, Treated Surv/Total", "setting": "equine abortion virus; Expt. 2, 62.5 mg/kg/day i.p.", "result": "10/10"},
      {"measurement": "Survival Increase p", "setting": "equine abortion virus; Expt. 2, 62.5 mg/kg/day i.p.", "result": "< 0.001"},
      {"measurement": "Infected, Treated Mean Survival Time", "setting": "equine abortion virus; Expt. 2, 62.5 mg/kg/day i.p.", "result": "> 21", "unit": "days"},
      {"measurement": "Mean Surv. Increase p", "setting": "equine abortion virus; Expt. 2, 62.5 mg/kg/day i.p.", "result": "< 0.001"},
      {"measurement": "Infected, Treated Surv/Total", "setting": "equine abortion virus; Expt. 2, 250 mg/kg/day i.p.", "result": "3/10"},
      {"measurement": "Toxicity Control Surv/Total", "setting": "equine abortion virus; Expt. 2, 250 mg/kg/day i.p.", "result": "2/3"},
      {"measurement": "Survival Increase p", "setting": "equine abortion virus; Expt. 2, 250 mg/kg/day i.p.", "result": 0.09},
      {"measurement": "Infected, Treated Mean Survival Time", "setting": "equine abortion virus; Expt. 2, 250 mg/kg/day i.p.", "result": 12, "unit": "days"},
      {"measurement": "Mean Surv. Increase p", "setting": "equine abortion virus; Expt. 2, 250 mg/kg/day i.p.", "result": "< 0.001"},
      {"measurement": "human toxic symptoms", "setting": "[4]", "result": "mild nausea, transient leukopenia and central nervous system involvement which causes illusions and hallucinations"},
      {"measurement": "solubility (in words)", "setting": "[5]", "result": "low solubility"},
      {"measurement": "reported antiviral effectiveness", "setting": "[6]", "result": "effective agent against a spectrum of virus infections"}
    ]},
    {"molecule": "O=c1[nH]cnc2c1ncn2[C@@H]1O[C@@H]2COP(=O)(O)O[C@H]2[C@@H]1O", "note": "[9-β-D-Arabinofuranosylhypoxanthine-3' ,5'-cyclic phosphate]", "values": [
      {"measurement": "virus rating (VR)", "setting": "Vaccinia Virus", "result": 0.7},
      {"measurement": "virus rating (VR)", "setting": "[2]", "result": "0.7-1.1"}
    ]},
    {"molecule": "O=c1[nH]cnc2c1ncn2[C@@H]1O[C@H](CO)[C@@H](OP(=O)(O)O)[C@@H]1O", "note": "[9-β-D-Arabinofuranosylhypoxanthine-3'-phosphate]", "values": [
      {"measurement": "virus rating (VR)", "setting": "[2]", "result": 1.0}
    ]},
    {"molecule": "COP(=O)(O)OC[C@H]1O[C@@H](n2cnc3c(=O)[nH]cnc32)[C@@H](O)[C@@H]1O", "note": "[9-β-D-Arabinofuranosylhypoxanthine-5'-O-methylphosphate]", "values": [
      {"measurement": "virus rating (VR)", "setting": "Vaccinia Virus", "result": 0.4},
      {"measurement": "virus rating (VR)", "setting": "[1]", "result": 0.0},
      {"measurement": "virus rating (VR)", "setting": "[2]", "result": "0.4-0.7"}
    ]},
    {"molecule": "Nc1ncnc2c1ncn2[C@@H]1O[C@H](COP(=O)(O)O)[C@@H](O)[C@@H]1O", "note": "[9-β-D-arabinofuranosyladenine-5'-phosphate]", "values": [
      {"measurement": "metabolic degradation", "setting": "[7]", "result": "rapidly degraded in the metabolic system (eventually to uric acid)"},
      {"measurement": "virus rating (VR)", "setting": "[2]", "result": 1.3}
    ]},
    {"molecule": "O=c1[nH]c(=O)n([C@H]2C[C@H](O)[C@@H](CO)O2)cc1I", "note": "[IDU, 5'-iodo-2'-deoxyuridine]", "values": [
      {"measurement": "maximum solubility", "setting": "[5]", "result": "about 0.1 weight percent"},
      {"measurement": "solubility (in words)", "setting": "[5]", "result": "extremely low solubility"}
    ]}
  ]
}
